Laboratory results as given in PMC8571282 (Nature Communications, 2021).
Several values for one entry are separate records, joined by “and”; a condition that tells them apart may be missing. Equal values may be shown once.

Columns and labels:
HEp-2 cells = test: Cytotoxicity assay (PrestoBlue), HEp-2; conditions: 72 h
in vitro [1] = conditions: African green monkey
in vitro [2] = conditions: human, % cell viability
“F3” primary HAE cells = test: Cytotoxicity assay (PrestoBlue), “F3” HAE; conditions: F3 HAE, 72 h
HCT-8 cells = test: Cytotoxicity assay (PrestoBlue), HCT-8; conditions: HCT-8, 72 h
in vitro [3] = conditions: human
“F2” primary HAE cells = test: Cytotoxicity assay (PrestoBlue), “F2” HAE; conditions: 72 h; for % cell viability: F2 HAE
[4] = female, ferret, in vivo, iv
in vitro [5] = conditions: human, 72 h
in vitro [6] = conditions: female, human, % cell viability, DF2 HAE, 33.333 µM, 72 h
in vitro [7] = conditions: human, % cell viability, M6 HAE, 72 h
in vitro [8] = conditions: human, % cell viability; remark: listed apart in the source
in vitro [9] = conditions: hamster
in vitro [10] = conditions: human, % cell viability, M2 HAE, 72 h
[11] = system: SARS-CoV-2-Nluc (WA1/2020-nano luciferase); test: microbe, parasite or virus in culture; format: cell-based

Structure (SMILES): CCC(CC)COC(=O)[C@H](C)N[P@](=O)(OC[C@H]1O[C@@](C#N)(c2ccc3c(N)ncnn23)[C@H](O)[C@@H]1O)Oc1ccccc1 [remdesivir]
- % cell viability (HEp-2 cells; HEp-2, 0.046 µM, 0.046 µM): 45% and 47% and 73%
- % cell viability (HEp-2 cells; HEp-2, 1.235 µM, 1.235 µM): 86% and 94%
- % cell viability (HEp-2 cells; HEp-2, 3.704 µM, 3.704 µM): 96%
- % cell viability (HEp-2 cells; HEp-2, 33.333 µM, 33.333 µM): 51% and 66%
- % cell viability (HEp-2 cells; HEp-2, 100 µM, 100 µM): 24%
- CC50 (in vitro [1]): > 100 µM
- viability at […] (in vitro [1]; % cell viability): 79%
- viability at 3.704 µM (in vitro [1]; % cell viability, VeroE6, 3.704 µM, 72 h): 92%
- viability at […] (in vitro [2]; female): 91%
- viability at 0.046 µM (in vitro [2]; female, F3 HAE, 0.046 µM, 72 h): 75%
- viability at 33.333 µM (in vitro [2]; female, F3 HAE, 33.333 µM, 72 h): 84%
- viability at 100 µM (in vitro [2]; F3 HAE, 100 µM, 72 h): 51%
- % cell viability (“F3” primary HAE cells; 0.046 µM): 76% and 79%
- % cell viability (“F3” primary HAE cells; 33.333 µM): 88% and 89%
- % cell viability (“F3” primary HAE cells; 100 µM): 52% and 54%
- CC50 (HCT-8 cells): 36.4 µM
- viability at 0.046 µM (in vitro [3]; % cell viability, HCT-8, 0.046 µM, 72 h): 76%
- viability at 33.333 µM (in vitro [3]; % cell viability, HCT-8, 33.333 µM, 72 h): 51%
- viability at 100 µM (in vitro [3]; % cell viability, HCT-8, 100 µM, 72 h): 15%
- CC50 (in vitro [3]; CC50, HCT-8, 72 h): 36.4 µM
- % cell viability (“F2” primary HAE cells; 0.046 µM): 85% and 82%
- % cell viability (“F2” primary HAE cells; 33.333 µM): 77% and 71%
- % cell viability (“F2” primary HAE cells; 100 µM): 47%
- CC50 (“F2” primary HAE cells; “F2” HAE): 85.5 µM
- lung GS-443902 [4]: 1.28 nmol/g
- lung total nuc [4]: 2.96 nmol/g
- viability at 0.046 µM (in vitro [5]; female, % cell viability, F2 HAE, 0.046 µM): 81%
- viability at 33.333 µM (in vitro [5]; female, % cell viability, F2 HAE, 33.333 µM): 72%
- viability at 100 µM (in vitro [5]; % cell viability, F2 HAE, 100 µM): 46%
- CC50 (in vitro [5]; CC50, “F2” HAE): 85.5 µM
- viability at 33.333 µM (in vitro [6]): 86%
- viability at 100 µM (in vitro [7]; 100 µM): 89%
- viability at 0.046 µM (in vitro [7]; male, 0.046 µM): 90%
- viability at 1.235 µM (in vitro [7]; male, 1.235 µM): 87%
- viability at 33.333 µM (in vitro [7]; male, 33.333 µM): 96%
- viability at […] (in vitro [8]): 89%
- viability at 1.235 µM (in vitro [8]; HEp-2, 1.235 µM, 72 h): 83%
- viability at 33.333 µM (in vitro [8]; HEp-2, 33.333 µM, 72 h): 64%
- viability at 100 µM (in vitro [8]; HEp-2, 100 µM, 72 h): 31%
- CC50 (in vitro [9]): > 100 µM
- viability at 1.235 µM (in vitro [9]; % cell viability, BHK-21, 1.235 µM, 72 h): 87%
- viability at 3.704 µM (in vitro [9]; % cell viability, BHK-21, 3.704 µM, 72 h): 93%
- viability at 100 µM (in vitro [10]; 100 µM): 56%
- viability at 0.046 µM (in vitro [10]; male, 0.046 µM): 85%
- A549-hACE2 SARS-CoV-2 Nluc (EC50 determination), normalized signal ([11]; Conc 0.005 µM, replicate values of the experiments): 78.71 and 115.29 and 114.83 and 141.39 and 91.95 and 93.98 and 92.17 and 82.76 and 114.48 and 78.49 and 78.52 and 118.54
- EC50 ([11]; Severe acute respiratory syndrome coronavirus 2, WA1/2020-nano luciferase, A549-ACE2, mean ± SD): 0.08 µM
